Measurements from patent US6967196B1, “Sulfonamide compounds and uses thereof” (Bristol-Myers Squibb Company, priority 1999, dated 2005).
Counter-ions that a name gives are not always drawn. Like-named read-outs stand apart in the source and are kept apart here. Blank lines part the entries; values can stand above or below the compound they belong to.

Tested on: amyloid β production in transfected H4 (human neuroglioma) cells stably expressing APP constructs
Test: In vitro cell-based assay of inhibitors of amyloid β production (ELISA)
Method in brief: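 Sandwich ELISA read-out: Aβ in conditioned medium captured via C-terminal epitope mAb, detected with N-terminus-specific rabbit polyclonal, quantified from a standard curve. Compounds 10-100 μM, ~16 h exposure. Active = ≥50% inhibition vs control without significant cytotoxicity; dose-response follows.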

[1] = transfected H4 cells stably expressing APP constructs, approximately 16 hours incubation, amyloid β in medium by ELISA, read-out: ACTIVITY (IC50, inhibition of amyloid β production)
[2] = transfected H4 cells stably expressing APP, approximately 16 hours incubation, amyloid β in medium by ELISA, Table B, read-out: ACTIVITY (IC50, inhibition of amyloid β production)
[3] = Homo sapiens, 16 h, transfected H4 cells stably expressing APP, approx. 16 h incubation, amyloid β in medium by ELISA, read-out: ACTIVITY (IC50, inhibition of amyloid β production)
[4] = Homo sapiens, 16 h, transfected H4 cells stably expressing APP, approximately 16 hours incubation, amyloid β in medium by ELISA, read-out: ACTIVITY (IC50, inhibition of amyloid β production)
[5] = Homo sapiens, 16 h, transfected H4 cells expressing APP, approximately 16 hours incubation, amyloid β in medium by ELISA, read-out: ACTIVITY (IC50, inhibition of amyloid β production)
[6] = transfected H4 cells stably expressing APP, approximately 16 hours incubation, amyloid β in medium by ELISA, read-out: ACTIVITY (IC50, inhibition of amyloid β production)
[7] = Homo sapiens, 16 h, transfected H4 cells stably expressing APP constructs, approximately 16 hours incubation, amyloid β in medium by ELISA, read-out: ACTIVITY (IC50, inhibition of amyloid β production)
[8] = transfected H4 cells stably expressing APP, approx. 16 h incubation, amyloid β in medium by ELISA, read-out: ACTIVITY (IC50, inhibition of amyloid β production)

Compound: CSC1CCN(CCC[C@@H](C)N(c2cc(Cl)ccc2Cl)S(=O)(=O)c2ccc(Cl)cc2)C1 (stereo partly drawn) [Example 1144, 4-chloro-N-(2,5-dichlorophenyl)-N-[4-[(4-methylthio)-1-pyrrolidinyl]-1(R)-methylbutyl]benzenesulfonamide]
- IC50 [1]: 100 to 500 nM

Compound: CN1C2CCC1[C@@H](COc1ccccc1CN(c1ccccc1)S(=O)(=O)c1ccc(Cl)cc1)C2 (stereo partly drawn) [Example 300, 4-Chloro-N-(2-{[(2S)-7-methyl-7-azabicyclo[2.2.1]hept-2-yl]methoxy]benzyl)-N-phenylbenzenesulfonamide Hydrochloride]
- IC50 [2]: 50 to 100 nM

Compound: O=S(=O)(c1ccc(Cl)cc1)N(Cc1ccccc1OCCCCN1CCCCC1)c1ccccc1 [Example 977, 4-chloro-N-phenyl-N-{2-[4-(1-piperidinyl)butoxy]benzyl}benzenesulfonamide hydrochloride]
- IC50 [4]: > 500 nM

Compound: CC[S+]([O-])CCC[C@@H](C)N(c1cc(Cl)ccc1CO)S(=O)(=O)c1ccc(Cl)cc1 (stereo partly drawn) [Example 1222, 4-chloro-N-[5-chloro-2-(hydroxymethyl)phenyl]-N-[1(R)-methyl-(4-ethylsulfinyl)butyl]benzenesulfonamide]
- IC50 [1]: ≤ 25 nM

Compound: CSc1ccccc1N(Cc1ccccc1OCCCN1CCCCC1)S(=O)(=O)c1ccc(Cl)cc1 [Example 924, 4-chloro-N-[2-(methylsulfanyl)phenyl]-N-{2-[3-(1-piperidinyl)propoxy]benzyl}benzenesulfonamide hydrochloride]
- IC50 [4]: > 500 nM

Compound: CC(=O)Nc1nc(C)c(S(=O)(=O)N(Cc2ccccc2OCCCN2CCCCC2)c2cc(Cl)ccc2Cl)s1 [Example 1022, N-{5-[(2,5-dichloro{2-[3-(1-piperidinyl)propoxy]benzyl}anilino)sulfonyl]-4-methyl-1,3-thiazol-2-yl}acetamide hydrochloride]
- IC50 [6]: > 500 nM

Compound: COC(=O)[C@@H](NC(=O)CC[C@@H](C)N(c1cc(Cl)ccc1F)S(=O)(=O)c1ccc(Cl)cc1)C(C)C [Example 537, (R)-4-Chloro-N-(5-chloro-2-fluorophenyl)-N-[4-[N-(S)-[1-(methoxycarbonyl)-2-methylpropyl]amino]1-methyl-4-oxobutyl]benzenesulfonamide]
- IC50 [2]: 100 to 500 nM

Compound: CN1C2CCC1[C@@H](COc1ccccc1CN(c1ccccc1)S(=O)(=O)c1ccc(Cl)cc1)C2 (stereo partly drawn) [Example 941, 4-chloro-N-(2-{[(2S)-7-methyl-7-azabicyclo[2.2.1]hept-2-yl]methoxy}benzyl)-N-phenylbenzenesulfonamide hydrochloride]
- IC50 (Homo sapiens, transfected H4 cells stably expressing APP, approximately 16 hours incubation, amyloid β in medium by ELISA, read-out: ACTIVITY (IC50, inhibition of amyloid β production)): > 500 nM

Compound: 2,4-dichloro-N-{3-[2-(1-{[(4-chlorophenyl)sulfonyl]-2,5-difluoroanilino}ethyl)phenoxy]propyl}-5-fluoro-N-methylbenzamide [Example 750]
- IC50 [8]: 100 to 500 nM

Compound: N-{4-[2-(1-{[(4-chlorophenyl)sulfonyl]-2,5-difluoroanilino}ethyl)phenoxy]butyl}-2-ethyl-N-methylhexanamide [Example 676]
- IC50 [8]: 100 to 500 nM

Compound: 4-tert-butyl-N-{3-[2-(1-{[(4-chlorophenyl)sulfonyl]-2,5-difluoroanilino}ethyl)phenoxy]propyl}benzamide [Example 274]
- IC50 [2]: 25 to 50 nM

Compound: 2-((1R)-1-{[(4-chlorophenyl)sulfonyl]-2,5-difluoroanilino}ethyl)benzyl 3,4-difluorobenzylcarbamate [Example 961]
- IC50 [6]: > 500 nM

Compound: O=S(=O)(c1ccc(Cl)cc1)N(Cc1cc(F)ccc1OCCCN1CCCCC1)c1cc(F)ccc1F [Example 231, 4-Chloro-N-(2,5-difluorophenyl)-N-{5-fluoro-2-[3-(1-piperidinyl)propoxy]benzyl}benzenesulfonamide Hydrochloride]
- IC50 (read-out: ACTIVITY (inhibitory concentration IC50, inhibition of amyloid β production)): 25 to 50 nM

Compound: O=S(=O)(c1ccc(Cl)cc1)N(Cc1ccccc1OCCCN1CCC(O)CC1)c1ccccc1 [Example 645, 4-chloro-N-{2-[3-(4-hydroxy-1-piperidinyl)propoxy]benzyl}-N-phenylbenzenesulfonamide hydrochloride]
- IC50 [3]: 100 to 500 nM

Compound: CC(c1ccccc1OCCCN(C)C(=O)c1cc([N+](=O)[O-])cc([N+](=O)[O-])c1)N(c1cc(F)ccc1F)S(=O)(=O)c1ccc(Cl)cc1 (stereo not drawn) [Example 668, N-{3-[2-(1-{[(4-chlorophenyl)sulfonyl]-2,5-difluoroanilino}ethyl)phenoxy]propyl}-N-methyl-3,5-dinitrobenzamide]
- IC50 [8]: 100 to 500 nM

Compound: 2-((1R)-1-{[(4-chlorophenyl)sulfonyl]-2,5-difluoroanilino}ethyl)benzyl 2,5-difluorobenzylcarbamate [Example 639]
- IC50 [8]: 100 to 500 nM

The remaining lines, values ahead:

- IC50 [3]: 100 to 500 nM
Compound: O=C1CCCC(=O)N1CCCOc1ccccc1CN(c1cc(F)ccc1F)S(=O)(=O)c1ccc(Cl)cc1 [Example 704, 4-chloro-N-(2,5-difluorophenyl)-N-{2-[3-(2,6-dioxo-1-piperidinyl)propoxy]benzyl}benzenesulfonamide]

- IC50 [4]: 100 to 500 nM
Compound: O=S(=O)(c1ccc(Cl)cc1)N(Cc1ccccc1OCCCN1CCC(O)(C(F)(F)F)CC1)c1ccccc1 [Example 833, 4-chloro-N-(2-{3-[4-hydroxy-4-(trifluoromethyl)-1-piperidinyl]propoxy}benzyl)-N-phenylbenzenesulfonamide hydrochloride]

- IC50 [5]: > 10000 nM
Compound: C[C@H](COC(=O)NCCn1ccnc1)N(c1cc(Cl)ccc1CO)S(=O)(=O)c1ccc(Cl)cc1 [Example 1293]

- IC50 [7]: ≤ 25 nM
Compound: CNS(=O)(=O)CCC[C@@H](C)N(c1cc(Cl)ccc1CO)S(=O)(=O)c1ccc(Cl)cc1 [Example 1233, 4-chloro-N-[5-chloro-2-(hydroxymethyl)phenyl]-N-[4-[(methylamino)sulfonyl]-1(R)-methylbutyl]benzenesulfonamide]

- IC50 [4]: > 500 nM
Compound: O=S(=O)(c1ccc(Cl)cc1)N(Cc1ccccc1OCCCN1CCCCC1)C1CC1 [Example 1003, 4-chloro-N-cyclopropyl-N-{2-[3-(1-piperidinyl)propoxy]benzyl}benzenesulfonamide hydrochloride]

- IC50 (Homo sapiens, 16 h, transfected H4 cells stably expressing APP, approximately 16 hours incubation, amyloid β in medium by ELISA, Table B, read-out: ACTIVITY (IC50, inhibition of amyloid β production)): 50 to 100 nM
Compound: O=C1CCC(=O)N1CCCOc1ccccc1CN(c1cc(F)ccc1F)S(=O)(=O)c1ccc(Cl)cc1 [Example 399, 4-chloro-N-(2,5-difluorophenyl)-N-{2-[3-(2,5-dioxo-1-pyrrolidinyl)propoxy]benzyl}benzenesulfonamide]

- IC50 [5]: > 500 nM
Compound: C[C@H](C(=O)NCCc1cccs1)N(c1cc(Cl)ccc1F)S(=O)(=O)c1ccc(Cl)cc1 [Example 1317]

- IC50 [5]: > 500 nM
Compound: C[C@H](C(=O)N[C@H](C)C1CCCCC1)N(c1cc(Cl)ccc1F)S(=O)(=O)c1ccc(Cl)cc1 [Example 1351]

- IC50 [5]: ≤ 25 nM
Compound: C[C@H](CCCOC(=O)N(C)CCO)N(c1cc(Cl)ccc1CO)S(=O)(=O)c1ccc(Cl)cc1 [Example 1297]

- IC50 [8]: 100 to 500 nM
Compound: CC(c1ccccc1OCCCNC(=O)c1cccc(F)c1)N(c1cc(F)ccc1F)S(=O)(=O)c1ccc(Cl)cc1 (stereo not drawn) [Example 761]

- IC50 [4]: 100 to 500 nM
Compound: O=S(=O)(c1ccc(Cl)cc1)N(Cc1ccccc1OCCCN1CCOCC1)c1ccccc1 [Example 859, 4-chloro-N-{2-[3-(4-morpholinyl)propoxy]benzyl}-N-phenylbenzenesulfonamide hydrochloride]

- IC50 [7]: > 10000 nM
Compound: O=S(=O)(c1ccccc1)N(Cc1ccccc1CCCO)c1ccccc1 [Example 1088, N-[2-(3-hydroxypropyl)benzyl]-N-phenylbenzenesulfonamide]

- IC50 [8]: 100 to 500 nM
Compound: 2-((1R)-1-{[(4-chlorophenyl)sulfonyl]-2,5-difluoroanilino}ethyl)benzyl cyclohexylcarbamate [Example 675]

- IC50 [3]: 100 to 500 nM
Compound: CCN(CCOc1ccccc1C(C)N(c1cc(F)ccc1F)S(=O)(=O)c1ccc(Cl)cc1)C(=O)NC(C)C (stereo not drawn) [Example 725, 4-chloro-N-(2,5-difluorophenyl)-N-{1-[2-(2-{ethyl[(isopropylamino)carbonyl]amino}ethoxy)phenyl]ethyl}benzenesulfonamide]

- IC50 [4]: > 500 nM
Compound: O=S(=O)(c1ccc(Cl)cc1)N(Cc1ccccc1CCCCCN1CCCCC1)c1ccccc1 [Example 978, 4-chloro-N-phenyl-N-{2-[5-(1-piperidinyl)pentyl]benzyl}benzenesulfonamide hydrochloride]

- IC50 [4]: 100 to 500 nM
Compound: O=S(=O)(c1ccc(Cl)cc1)N(Cc1ccccc1OCCCN1CCCCC1)C1CCCC1 [Example 835, 4-chloro-N-cyclopentyl-N-{2-[3-(1-piperidinyl)propoxy]benzyl}benzenesulfonamide hydrochloride]

- IC50 [3]: 100 to 500 nM
Compound: CC(c1ccccc1OCCCN(C)S(=O)(=O)c1ccc(I)cc1)N(c1cc(F)ccc1F)S(=O)(=O)c1ccc(Cl)cc1 (stereo not drawn) [Example 692, 4-chloro-N-(2,5-difluorophenyl)-N-[1-(2-{3-[[(4-iodophenyl)sulfonyl](methyl)amino]propoxy}phenyl)ethyl]benzenesulfonamide]
